Read-outs that look alike come from different tables or passages of the source.
Tests used:
[1] = target: recombinant RORγ Ligand Binding Domain (LBD) protein (Homo sapiens (Human), UniProt P51449); experiment: Radio-Ligand RORγ Binding Assay (Assay 1); conditions: competition with 25-hydroxy [26,27-3H]-cholesterol, SPA, read-out: RORγ Binding Ki Range*
Outline: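 Scintillation proximity competition binding of 8.6 nM stock 25-hydroxy[26,27-3H]cholesterol to 24 nM stock 6×His-GST-tagged human RORγ LBD, in 50 mM HEPES pH 7.4 with NaCl, MgCl2, glycerol, CHAPS, β-octylglucopyranoside and DTT, room temperature. Inhibition referenced to DMSO and 10 μM T0901317; IC50 by four-parameter fit, converted to Ki using radioligand concentration and KD.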

[2] = target: full-length RORγt in Jurkat cells (Homo sapiens (Human), UniProt P51449); experiment: RORγt 5xRORE Assay in Jurkat Cells (Assay 2); assay type: cell-based; conditions: Nanoluc luciferase reporter, 16-18 hrs
Outline: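 Jurkat cells co-transfected with full-length RORγt expression plasmid and a 5×RORE-driven secreted Nanoluc reporter, then plated at 80,000 cells/well in phenol-red-free RPMI with 10% delipidated FBS. Compounds added at 0.1% DMSO for 16–18 h at 37 °C; supernatant luciferase read for inverse agonism.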

[3] = Table 9, read-out: RORγt5X IC50 Range*
[4] = Table 8, read-out: RORγt5X IC50 Range*

Chain of full-length RORγt in Jurkat cells (P51449 other isoform, or with tags, fused parts or gaps): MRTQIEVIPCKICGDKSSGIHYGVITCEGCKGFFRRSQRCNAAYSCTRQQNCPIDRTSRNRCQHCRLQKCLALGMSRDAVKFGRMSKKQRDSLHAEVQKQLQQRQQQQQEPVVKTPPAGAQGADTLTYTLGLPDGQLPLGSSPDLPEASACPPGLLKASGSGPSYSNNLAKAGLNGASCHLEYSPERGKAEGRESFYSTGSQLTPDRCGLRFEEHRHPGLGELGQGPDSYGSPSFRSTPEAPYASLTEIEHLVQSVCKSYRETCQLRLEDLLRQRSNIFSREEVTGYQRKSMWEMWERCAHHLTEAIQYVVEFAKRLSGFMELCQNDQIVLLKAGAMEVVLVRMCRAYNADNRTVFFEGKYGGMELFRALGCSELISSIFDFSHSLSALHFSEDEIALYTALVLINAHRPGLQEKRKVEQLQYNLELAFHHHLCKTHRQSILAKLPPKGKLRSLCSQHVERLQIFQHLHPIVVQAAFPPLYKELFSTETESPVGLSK
Chain of recombinant RORγ Ligand Binding Domain (LBD) protein (P51449 269-508): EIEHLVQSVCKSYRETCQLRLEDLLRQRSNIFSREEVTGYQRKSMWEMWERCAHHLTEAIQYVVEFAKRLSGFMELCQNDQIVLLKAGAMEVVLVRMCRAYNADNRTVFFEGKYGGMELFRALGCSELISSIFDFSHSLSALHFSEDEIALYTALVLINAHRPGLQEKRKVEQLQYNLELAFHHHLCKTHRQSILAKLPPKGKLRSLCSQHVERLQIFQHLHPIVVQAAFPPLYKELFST

Ki ([1]; Table 9)	IC50 [2, 3]	Ki ([1]; Table 8)	IC50 [2, 4]	Compound
< 100 nM	100 to 1000 nM			CCS(=O)(=O)c1ccc(CC(=O)Nc2nc3c(s2)CN(Cc2cnc(C)nc2)[C@H]3C(C)C)cc1
< 100 nM	> 1000 nM			CCS(=O)(=O)c1ccc(CC(=O)Nc2nc3c(s2)CN(Cc2ccc(F)cc2)[C@@H]3C(C)C)cc1
		< 100 nM	< 100 nM	CC(C)[C@H]1c2nc(NC(=O)Cc3ccc(S(C)(=O)=O)cc3)sc2CN1Cc1ccc(C(F)(F)F)cn1 [I-B4]
< 100 nM	100 to 1000 nM			CC(C)[C@H]1c2nc(NC(=O)Cc3ccc(C(=O)O)cc3)sc2CN1Cc1ccc(Cl)cc1
< 100 nM	> 1000 nM			CCS(=O)(=O)c1ccc(CC(=O)Nc2nc3c(s2)CN(C[C@H]2CC[C@H](C(F)(F)F)NC2)[C@H]3C(C)C)nc1 (single isomer, unassigned) [drawing 212]
< 100 nM	< 100 nM			CCS(=O)(=O)c1ccc(CNC(=O)c2nc3c(s2)CN(CC2CN(C(=O)OC(C)(C)C)CCO2)[C@H]3C(C)C)cc1 (some centres unmarked)
< 100 nM	< 100 nM			CCS(=O)(=O)c1ccc(CC(=O)Nc2nc3c(s2)C(C)N(Cc2ccc(Cl)cc2)[C@H]3C(C)C)cc1 (some centres unmarked)
100 to 1000 nM	> 1000 nM			CC(C)[C@H]1c2nc(NC(=O)Cc3ccccc3)sc2CN1Cc1ccc(Cl)cc1
		< 100 nM	< 100 nM	CCS(=O)(=O)c1ccc(CC(=O)Nc2nc3c(s2)CN(Cc2ccc(-c4ccc(=O)n(C)c4)cc2)[C@H]3C(C)C)cc1 [I-A19, (S)-2-(4-(ethylsulfonyl)phenyl)-N-(4-isopropyl-5-(4-(1-methyl-6-oxo-1,6-dihydropyridin-3-yl)benzyl)-5,6-dihydro-4H-pyrrolo[3,4-d]thiazol-2-yl)acetamide]
		< 100 nM	< 100 nM	CCS(=O)(=O)c1ccc(CC(=O)Nc2nc3c(s2)CN(C[C@H]2CC[C@H](C(F)(F)F)CC2)[C@H]3C(C)C)cc1 [I-A17, 2-(4-(ethylsulfonyl)phenyl)-N—((S)-4-isopropyl-5-((trans-4-(trifluoromethyl)cyclohexyl)methyl)-5,6-dihydro-4H-pyrrolo[3,4-d]thiazol-2-yl)acetamide]
< 100 nM	100 to 1000 nM			CCS(=O)(=O)c1ccc(CNC(=O)c2nc3c(s2)CN(C[C@H]2CN(C(=O)OC(C)(C)C)CCO2)[C@H]3C(C)C)cc1 (relative stereo)
		< 100 nM	> 1000 nM	CCS(=O)(=O)c1ccc(CC(=O)Nc2nc3c(s2)CN(Cc2nnc(C(F)(F)F)o2)[C@H]3C(C)C)cc1 [I-A9]
< 100 nM	100 to 1000 nM			CC(C)[C@H]1c2nc(NC(=O)Cc3ccc(C(N)=O)cc3)sc2CN1Cc1ccc(Cl)cc1
		< 100 nM	< 100 nM	CCS(=O)(=O)c1ccc(CC(=O)Nc2nc3c(s2)CN(C[C@H]2CC[C@@](C)(OC)CC2)[C@H]3C(C)C)nc1 [I-C6]
< 100 nM	100 to 1000 nM			CCS(=O)(=O)c1ccc(CC(=O)Nc2nc3c(s2)CN(CC2CN(CC(F)(F)F)C2)[C@H]3C(C)C)cc1
< 100 nM	> 1000 nM			CCS(=O)(=O)c1ccc(CC(=O)Nc2nc3c(s2)CN(c2ncc(C(C)=O)c(C(F)(F)F)n2)[C@H]3C(C)C)cc1
< 100 nM	> 1000 nM			CCS(=O)(=O)c1ccc(CC(=O)Nc2nc3c(s2)CN(C[C@@H]2CC[C@@H](C(F)(F)F)N(C4CC4)C2)[C@H]3C(C)C)cc1 (single isomer, unassigned)
100 to 1000 nM	> 1000 nM			CC(C)[C@@H]1c2nc(NC(=O)Cc3ccc(S(C)(=O)=O)cc3)sc2CN1Cc1cccc(C#N)c1
		< 100 nM	< 100 nM	CCS(=O)(=O)c1ccc(CC(=O)Nc2nc3c(s2)CN(Cc2ccc(Cl)cn2)[C@H]3C(C)C)cc1 [I-A11]
< 100 nM	> 1000 nM			CCS(=O)(=O)c1ccc(CC(=O)Nc2nc3c(s2)CN(Cc2ccc(C#N)cc2C(F)(F)F)[C@H]3C(C)C)cc1
< 100 nM	< 100 nM			CCS(=O)(=O)c1ccc(CC(=O)Nc2nc3c(s2)CN(Cc2ccc(Cl)cc2)[C@H]3C(C)C)c(Cl)c1
		< 100 nM	< 100 nM	CCS(=O)(=O)c1ccc(CNC(=O)c2nc3c(s2)CN(Cc2ccc(Cl)cc2)[C@H]3C(C)C)nc1 [I-L1, (S)-5-(4-chlorobenzyl)-N-((5-(ethylsulfonyl)pyridin-2-yl)methyl)-4-isopropyl-5,6-dihydro-4H-pyrrolo[3,4-d]thiazole-2-carboxamide]
< 100 nM	> 1000 nM			CCS(=O)(=O)c1ccc(CC(=O)Nc2nc3c(s2)CN(Cc2cc(Cl)ccc2Cl)[C@@H]3C(C)C)cc1
< 100 nM	100 to 1000 nM			CC(C)[C@H]1c2nc(C(=O)NCc3ccc(S(C)(=O)=O)cc3)sc2CN1Cc1ccc(C#N)c(F)c1
		< 100 nM	< 100 nM	CC(C)[C@H]1c2nc(NC(=O)Cc3ccc(S(C)(=O)=O)cc3)sc2CN1Cc1ccc(C#N)cc1F [I-B17]
		< 100 nM	< 100 nM	CCS(=O)(=O)c1ccc(CC(=O)Nc2nc3c(s2)CN(Cc2ccc(C#N)cc2)[C@H]3C(C)C)nc1 [I-C11]

Ki ([1]; Table 9)	IC50 [2, 3]	Ki ([1]; Table 8)	IC50 [2, 4]	Compound
		< 100 nM	< 100 nM	CCS(=O)(=O)c1ccc(CC(=O)Nc2nc3c(s2)CN([C@H](C)c2ccc(Cl)cc2F)[C@H]3C(C)C)cc1 [I-A38]
		< 100 nM	< 100 nM	CCS(=O)(=O)c1ccc(CNC(=O)c2nc3c(s2)CN(Cc2ccc(OC(F)F)cc2)[C@H]3C(C)C)cc1 [I-J6]
		< 100 nM	< 100 nM	CCS(=O)(=O)c1ccc(CC(=O)Nc2nc3c(s2)CN(C[C@H]2CN(C(=O)OC(C)(C)C)CCO2)[C@H]3C(C)C)cc1 [I-A41]
< 100 nM	> 1000 nM			CCS(=O)(=O)c1ccc(CC(=O)Nc2nc3c(s2)CN([C@H](C)c2ccccc2)[C@@H]3C(C)C)cc1 (single isomer, unassigned)
		< 100 nM	> 1000 nM	CCS(=O)(=O)c1ccc(CC(=O)Nc2nc3c(s2)CN(Cc2ccccc2)[C@H]3C(C)C)cc1 [I-A7]
< 100 nM	100 to 1000 nM			CCS(=O)(=O)c1cnc(CC(=O)Nc2nc3c(s2)CN(Cc2ccc(Cl)cc2)[C@H]3C(C)C)nc1
< 100 nM	100 to 1000 nM			CC(C)[C@H]1c2nc(NC(=O)Cc3ccc(C#N)cc3)sc2CN1Cc1ccc(C#N)c(OC(F)F)c1
< 100 nM	> 1000 nM			CCc1ccc(CN2Cc3sc(NC(=O)Cc4ccc(S(C)(=O)=O)cc4)nc3[C@H]2C(C)C)cc1
< 100 nM	< 100 nM			CC(C)[C@H]1c2nc(NC(=O)Cc3ccc(S(N)(=O)=O)cc3)sc2CN1Cc1ccc(C(F)(F)F)cc1
< 100 nM	< 100 nM			CCS(=O)(=O)c1ccc(CC(=O)Nc2nc3c(s2)CN(Cc2ccc(OC(F)(F)F)c(Cl)c2)[C@H]3C(C)C)nc1
< 100 nM	> 1000 nM			CC[C@H]1c2nc(NC(=O)Cc3ccc(S(=O)(=O)CC)cc3)sc2CN1[C@@H](C)Cc1ccccc1
< 100 nM	> 1000 nM			CCS(=O)(=O)c1ccc(CNC(=O)c2nc3c(s2)CN(CC2CN(CC(F)(F)F)CCO2)[C@H]3C(C)C)cc1 (some centres unmarked)
< 100 nM	< 100 nM			CCS(=O)(=O)c1ccc(CC(=O)Nc2nc3c(s2)CN(Cc2ccc(C(N)=O)cc2)[C@H]3C(C)C)cc1
		< 100 nM	< 100 nM	CCS(=O)(=O)c1ccc(CNC(=O)c2nc3c(s2)CN(Cc2ccc(C(F)(F)F)cn2)[C@H]3C(C)C)cc1 [I-J4]
< 100 nM	100 to 1000 nM			CCS(=O)(=O)c1ccc(CC(=O)Nc2nc3c(s2)CN(Cc2ccc(C(F)(F)F)c(Cl)c2)[C@@H]3C(C)C)cc1
< 100 nM	100 to 1000 nM			CCS(=O)(=O)c1ccc(CC(=O)Nc2nc3c(s2)CN(C[C@H]2CC[C@@](OC)(C(F)(F)F)CC2)[C@H]3C(C)C)nc1 (single isomer, unassigned)
		< 100 nM	< 100 nM	CCS(=O)(=O)c1ccc(CC(=O)Nc2nc3c(s2)CN(C(C)c2c(F)cc(Cl)cc2F)[C@H]3C(C)C)cc1 (some centres unmarked) [I-A32]
< 100 nM	100 to 1000 nM			CC(C)[C@H]1c2nc(C(=O)NCc3ccc(S(C)(=O)=O)cc3)sc2CN1Cc1ccc(Cl)cn1 [drawing 378]
< 100 nM	> 1000 nM			CCS(=O)(=O)c1ccc(CC(=O)Nc2nc3c(s2)CN(c2nccc(C4CC4)n2)[C@@H]3C(C)C)cc1
< 100 nM	100 to 1000 nM			CCS(=O)(=O)c1ccc(CC(=O)Nc2nc3c(s2)CN(C[C@H]2CC[C@@H](C(F)(F)F)OC2)[C@H]3C(C)C)nc1 (single isomer, unassigned)
100 to 1000 nM	> 1000 nM			CCS(=O)(=O)c1ccc(CC(=O)Nc2nc3c(s2)CN(Cc2ccn(C)c(=O)c2)[C@H]3C(C)C)cc1
< 100 nM	> 1000 nM			CCS(=O)(=O)c1ccc(CC(=O)Nc2nc3c(s2)CN(C[C@H]2CC[C@@H](C(F)(F)F)NC2)[C@H]3C(C)C)cc1 (single isomer, unassigned)
		< 100 nM	< 100 nM	CC(C)[C@H]1c2nc(NC(=O)Cc3ccc(S(C)(=O)=O)cc3)sc2CN1Cc1ccc(C#N)c(Cl)c1 [I-B8]
< 100 nM	< 100 nM			CCS(=O)(=O)c1ccc(CC(=O)Nc2nc3c(s2)CN([C@@H](C)c2c(F)cc(Cl)cc2F)[C@H]3C(C)C)cc1 (single isomer, unassigned)
		< 100 nM	< 100 nM	CC(C)[C@H]1c2nc(NC(=O)Cc3ccc(S(C)(=O)=O)cc3)sc2CN1Cc1ccc(C#N)cc1 [I-B18]
100 to 1000 nM	100 to 1000 nM			CC(C)[C@@H]1c2nc(NC(=O)Cc3ccc(S(C)(=O)=O)cc3)sc2CN1Cc1ccc(OC(F)F)cc1F

— US9868748B2, “Thiazolopyrrolidine inhibitors of ROR- γ” (Vitae Pharmaceuticals, Inc., priority 2013, dated 2018)
